Results taken from patent publication US20170368069A1, “USE OF 4-(4-FLUORO-2-METHOXYPHENYL)-N--1,3,5-TRIAZIN-2-AMINE FOR TREATING LEUKEMIAS” (Bayer Pharma Aktiengesellschaft, priority 2015, published 2017).
Values joined by “and” are separate entries in the source; they are usually repeats but may differ in a detail not shown here. Identical values can stand only once. “Also recorded” adds a separate entry of the source.

Columns and labels:
MOLM-13 = test: Proliferation assay, MOLM-13; format: cell-based; details: Homo sapiens; MOLM-13, acute myeloid leukemia, 11q23 positive; after 72 hours of incubation
OCI-AML-2 = test: Proliferation assay, OCI-AML-2; format: cell-based; details: Homo sapiens, OCI-AML2; OCI-AML-2, acute myeloid leukemia; after 72 hours of incubation
PL-21 = test: Proliferation assay, PL-21; format: cell-based; details: PL-21, acute myeloid leukemia; after 72 hours of incubation
HL-60 [1] = test: Proliferation assay, HL-60; format: cell-based; details: Homo sapiens; HL-60, acute leukemia; after 72 hours of incubation with the substance
NOMO-1 [2] = test: Subcutaneous NOMO-1 leukemia xenograft, efficacy and tolerability; format: in vivo, NOD/SCID mice
Protocol: (§1) The aim of the present experiments was to assess the in vivo efficacy and tolerability of Compound A′ in monotherapy in four leukemia models subcutaneously implanted in NOD/SCID mice.
(§2) The experiments included four in vivo efficacy experiments with female NOD/SCID mice bearing subcutaneous leukemia xenografts. Compound A′ was assessed at one dose level in monotherapy. Anti-tumor activity and tolerability of all groups were assessed using the vehicle control group as a reference.
(§3) Mouse strain, sex: NOD/SCID, female Animals supplied by: Harlan Total number of mice Efficacy test (implanted/randomized): 100/74 Approximate age at implantation: 5-7 weeks Approximate age at randomization: 6-9 weeks
(§4) The tumor models used in this study were derived from commercially available cell lines.
(§5) Leukemia cells were subcutaneously injected as cell suspensions into one flank of immunodeficient NOD/SCID mice under isofluorane anaesthesia (5*10^6 cells per injection). In the case of THP-1 cells, matrigel was used to increase implantation efficacy. For this, 1×10^8 leukemia cells were mixed with matrigel and an appropriate volume of the solution containing 5*10^6 cells was injected as described above.
(§6) At randomization, the volume of growing tumors was initially determined. […] The result of the randomization was documented and maintained with the experimental data. Animals not randomized were euthanized. The day of randomization is designated as day 0 of an experiment.
(§7) Vehicle: 80% (m/V) PEG400 in water for injection Compound A′: preparation of a dosing solution (2.5 mg/ml) once weekly by diluting the Compound A′ powder at 0.25% (w/v) in vehicle; storage of the dosing solution at 4° C.; dosing volume 10 ml/kg
(§8) Mice were weighed twice a week. Relative body weights of individual mice in % were calculated by dividing the individual body weight on day X (BWX) by the individual body weight on day 0 (BW0) multiplied by 100 according to the formula: […]
(§9) Group median relative body weights were calculated as well, considering only the weights of mice that were alive on the day in question.
(§10) The tumor volumes were determined by two-dimensional measurement with a caliper on the day of randomization (day 0) and then twice weekly (i.e. on the same days on which mice were weighed). Tumor volumes were calculated according to the formulas: […]
(§11) Anti-tumor activity was evaluated as maximum tumor volume inhibition versus the vehicle control group. Data evaluation was performed using Oncotest proprietary software.
(§12) Tumor inhibition for a particular day (T/C in %) was calculated from the ratio of the median RTV values of test versus control groups multiplied by 100.
(§13) The minimum (or optimum) T/C % value recorded for a particular test group during an experiment represents the maximum anti-tumor activity for the respective treatment. T/C values were calculated if at least 50% of the randomized animals in a group were alive on the day in question.
(§14) Group optimum T/C values (in %) were used for activity rating as follows:
(§15) All leukemia models were implanted by subcutaneous injection of the corresponding cell line into female NOD/SCID mice. Compound A′ was administered orally at one dose level (25 mg/kg/day) in monotherapy once daily and treatment started once subcutaneous tumors were established. A vehicle-treated control group was included in each experiment. […] Anti-tumor activity (tumor growth inhibition) and tolerability of all groups were assessed using the vehicle control group as a reference.

[3] = tested on: leukemia xenograft models MV4-11, NOMO-1, THP-1 and HL-60; test: Leukemia xenograft models, statements pooled over several models; format: in vivo; details: leukemia xenografts bearing mice, 25 mg/kg/day p.o.
Protocol: as §1, §2
Mouse strain, sex: NOD/SCID, female Animals supplied by: Harlan Total number of mice Efficacy test (implanted/randomized): 100/74 Approximate age at implantation: 5-7 weeks Approximate age at randomization: 6-9 weeks […]
(§16) At randomization, the volume of growing tumors was initially determined. […]
as §8, §9, §10

HL-60 [4] = test: Subcutaneous HL-60 leukemia xenograft, efficacy and tolerability; format: in vivo, NOD/SCID mice; details: 25 mg/kg/day p.o.
Protocol: as §1, §2, §3, §4
Leukemia cells were subcutaneously injected as cell suspensions into one flank of immunodeficient NOD/SCID mice under isofluorane anaesthesia (5*10^6 cells per injection). In the case of THP-1 cells, matrigel was used to increase implantation efficacy. […]
as §16, §8, §9, §10
(§17) Anti-tumor activity was evaluated as maximum tumor volume inhibition versus the vehicle control group. […]
Tumor inhibition for a particular day (T/C in %) was calculated from the ratio of the median RTV values of test versus control groups multiplied by 100. […]

NOMO-1 [5] = test: Proliferation assay, NOMO-1; format: cell-based; details: Homo sapiens; NOMO-1, acute myeloid leukemia, 11q23 positive; after 72 hours of incubation
THP-1 = test: Subcutaneous THP-1 leukemia xenograft, efficacy and tolerability; format: in vivo, NOD/SCID mice
Protocol: as §1, §2, §3, §4, §5, §6, §7, §8, §9, §10, §11, §12, §13, §14, §15

MV4-11 [6] = test: Subcutaneous MV4-11 leukemia xenograft, efficacy and tolerability; format: in vivo, NOD/SCID mice
Protocol: as §1, §2, §3, §4, §5
At randomization, the volume of growing tumors was initially determined. […] The result of the randomization was documented and maintained with the experimental data. Animals not randomized were euthanized. The day of randomization is designated as day 0 of an experiment. […]
as §8, §9, §10, §17, §12
The minimum (or optimum) T/C % value recorded for a particular test group during an experiment represents the maximum anti-tumor activity for the respective treatment. T/C values were calculated if at least 50% of the randomized animals in a group were alive on the day in question. […]

KG-1 = test: Proliferation assay, KG-1; format: cell-based; details: Homo sapiens; KG-1, acute myeloid leukemia; after 72 hours of incubation
MV4-11 [7] = test: Proliferation assay, MV4-11; format: cell-based; details: Homo sapiens; MV4-11, acute myeloid leukemia, 11q23 positive; after 72 hours of incubation

COc1cc(F)ccc1-c1ncnc(Nc2cccc(CS(C)(=N)=O)c2)n1 (single isomer, unassigned; (+)) [Compound A′, (+)-4-(4-Fluoro-2-methoxyphenyl)-N-{3-[(S-methylsulfonimidoyl)methyl]phenyl}-1,3,5-triazin-2-amine]
IC50 (MOLM-13): 0.32 µM | IC50 (OCI-AML-2): 0.323 µM | IC50 (PL-21): 0.192 µM | IC50 (HL-60 [1]): 1.12 µM | Min. T/C (NOMO-1 [2]; NOMO-1 xenograft (11q23 translocation), 25 mg/kg/day p.o., days 0-25, minimum on day 14): 19.7 (14) % | anti-tumor activity (in words) (NOMO-1 [2]; NOMO-1 xenograft, 25 mg/kg/day p.o.): High anti-tumor activity | Activity Rating (NOMO-1 [2]; NOMO-1 xenograft, 25 mg/kg/day p.o., days 0-25, rating from group optimum T/C): ++ (High activity 10% ≦ T/C < 25%) | group median BWL (body weight loss) (NOMO-1 [2]; NOMO-1 xenograft-bearing mice, 25 mg/kg/day p.o.): up to 0.4% | Tumor growth versus vehicle control group (NOMO-1 [2]; NOMO-1 xenograft, Mann-Whitney-Wilcoxon U-test): significantly reduced; also recorded: significantly attenuated | tolerability [3]: acceptable tolerability profile | Min. T/C (HL-60 [4]; HL-60 xenograft (no 11q23 translocation), schedule days 0-6, 11-17, minimum on day 14, 25 mg/kg/day): 63.9% and 63.9 (14) % | anti-tumor activity (in words) (HL-60 [4]; HL-60 xenograft): borderline anti-tumor activity | Activity Rating (HL-60 [4]; HL-60 xenograft, days 0-6, 11-17, rating from group optimum T/C): +/− (Borderline activity 50% ≦ T/C < 65%) | IC50 (NOMO-1 [5]): 0.328 µM | Min. T/C (THP-1; THP-1 xenograft (11q23 translocation), 25 mg/kg/day p.o., days 0-25, minimum on day 14): 21.0 (14) % | anti-tumor activity (in words) (THP-1; THP-1 xenograft, 25 mg/kg/day p.o.): High anti-tumor activity | Activity Rating (THP-1; THP-1 xenograft, 25 mg/kg/day p.o., days 0-25, rating from group optimum T/C): + (Moderate activity 25% ≦ T/C < 50%) | group median BWL (body weight loss) (THP-1; THP-1 xenograft-bearing mice, 25 mg/kg/day p.o.): up to 0.4% | Tumor growth versus vehicle control group (THP-1; THP-1 xenograft, Mann-Whitney-Wilcoxon U-test): significantly reduced; also recorded: significantly attenuated | Min. T/C (MV4-11 [6]; MV4-11 xenograft (11q23 translocation), 25 mg/kg/day p.o., days 0-25, minimum on day 14): 11.9 (14) % | anti-tumor activity (in words) (MV4-11 [6]; MV4-11 xenograft, 25 mg/kg/day p.o.): High anti-tumor activity | Activity Rating (MV4-11 [6]; MV4-11 xenograft, 25 mg/kg/day p.o., days 0-25, rating from group optimum T/C): ++ (High activity 10% ≦ T/C < 25%) | Tumor growth versus vehicle control group (MV4-11 [6]; MV4-11 xenograft, Mann-Whitney-Wilcoxon U-test): significantly reduced; also recorded: significantly attenuated | IC50 (KG-1): 0.67 µM | IC50 (MV4-11 [7]): 0.386 µM
